Columns and labels:
Type in all cases: biochemical
p110α Type Ia human PI3K = target: T1, p110α Type Ia human PI3K (Homo sapiens, UniProt P42336); assay: In Vitro PI3K Enzyme Assay (AlphaScreen), Test (b)(i), p110α; conditions: read-out: IC50 versus p110α Type Ia human PI3K
T1 construct: full length DNA of each of the p110α, p110β and p110δ Type Ia human PI3K p110 isoforms; 6-His; made in house
Text: (b)(i) In Vitro PI3K Enzyme Assay
The assay used AlphaScreen technology (Gray et al., Analytical Biochemistry, 2003, 313: 234-245) to determine the ability of test compounds to inhibit phosphorylation by recombinant Type I PI3K enzymes of the lipid PI(4,5)P2.
DNA fragments encoding human PI3K catalytic and regulatory subunits were isolated from cDNA libraries using standard molecular biology and PCR cloning techniques. The selected DNA fragments were used to generate baculovirus expression vectors. In particular, full length DNA of each of the p110α, p110β and p110δ Type Ia human PI3K p110 isoforms (EMBL Accession Nos. HSU79143, S67334, Y10055 for p110α, p110β and p110δ respectively) were sub-cloned into a pDEST10 vector (Invitrogen Limited, Fountain Drive, Paisley, UK). The vector is a Gateway-adapted version of Fastbac1 containing a 6-His epitope tag. […]
Biotinylated-DiC8-PI(3,4,5)P3 (50 nM; Cell Signals Inc., Catalogue No. 107), recombinant purified GST-Grp1 PH protein (2.5 nM) and AlphaScreen Anti-GST donor and acceptor beads (100 ng; Packard Bioscience Limited, Station Road, Pangbourne, Berkshire, UK, Catalogue No. 6760603M) were added and the assay plates were left for about 5 to 20 hours at room temperature in the dark. The resultant signals arising from laser light excitation at 680 nm were read using a Packard AlphaQuest instrument. […]

mTOR [1] = target: T2, mTOR (Homo sapiens, UniProt P42345); assay: In Vitro mTOR Kinase Assay (Echo), Test (a)(ii)
T2 construct: FLAG; made in house
How it was run: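 Inhibition of truncated mTOR (1362-2549, FLAG-tagged, purified from stably transfected HEK293 cells) is measured as reduced AlphaScreen signal from a phospho-T389-recognising antibody bound to the biotinylated peptide product. Kinase incubation lasts 2 hours at room temperature. Potency is given as IC50.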

mTOR [2] = target: T2, mTOR; assay: mTOR Kinase Assay (Echo)
[3] = table of enzyme assay Test (a)(ii), read-out: Test (a)(ii) IC50

T2 sequence (P42345 1362-2549): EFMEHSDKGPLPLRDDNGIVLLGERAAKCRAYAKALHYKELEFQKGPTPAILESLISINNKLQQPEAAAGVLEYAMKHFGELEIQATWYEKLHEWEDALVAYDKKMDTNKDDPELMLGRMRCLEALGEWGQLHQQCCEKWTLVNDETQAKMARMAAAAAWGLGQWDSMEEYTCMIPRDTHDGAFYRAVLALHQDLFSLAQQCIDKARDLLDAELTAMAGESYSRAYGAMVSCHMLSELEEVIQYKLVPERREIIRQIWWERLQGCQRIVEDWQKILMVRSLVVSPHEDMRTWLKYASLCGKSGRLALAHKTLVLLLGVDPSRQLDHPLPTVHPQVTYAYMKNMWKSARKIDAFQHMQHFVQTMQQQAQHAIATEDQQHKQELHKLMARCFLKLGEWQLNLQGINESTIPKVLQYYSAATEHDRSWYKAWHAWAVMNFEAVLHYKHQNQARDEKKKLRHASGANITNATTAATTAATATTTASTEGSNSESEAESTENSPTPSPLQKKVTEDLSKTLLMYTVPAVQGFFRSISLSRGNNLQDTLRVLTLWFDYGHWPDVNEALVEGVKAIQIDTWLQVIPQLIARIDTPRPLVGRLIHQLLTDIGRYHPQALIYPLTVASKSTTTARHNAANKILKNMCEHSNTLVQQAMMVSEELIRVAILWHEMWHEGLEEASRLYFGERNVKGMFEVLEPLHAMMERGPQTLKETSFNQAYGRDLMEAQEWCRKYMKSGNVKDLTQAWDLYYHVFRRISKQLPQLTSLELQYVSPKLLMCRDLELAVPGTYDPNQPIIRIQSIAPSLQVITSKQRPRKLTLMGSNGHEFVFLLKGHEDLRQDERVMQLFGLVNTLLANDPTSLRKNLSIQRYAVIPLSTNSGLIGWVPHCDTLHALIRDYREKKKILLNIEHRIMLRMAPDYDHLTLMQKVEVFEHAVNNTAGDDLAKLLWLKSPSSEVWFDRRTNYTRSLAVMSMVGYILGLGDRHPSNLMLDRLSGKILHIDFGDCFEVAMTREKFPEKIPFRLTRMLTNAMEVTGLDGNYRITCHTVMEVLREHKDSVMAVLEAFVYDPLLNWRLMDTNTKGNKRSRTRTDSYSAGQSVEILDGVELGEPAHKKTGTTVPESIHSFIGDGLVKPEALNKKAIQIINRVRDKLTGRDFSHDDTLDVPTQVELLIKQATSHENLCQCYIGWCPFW
T1 sequence (P42336 whole entry, canonical isoform): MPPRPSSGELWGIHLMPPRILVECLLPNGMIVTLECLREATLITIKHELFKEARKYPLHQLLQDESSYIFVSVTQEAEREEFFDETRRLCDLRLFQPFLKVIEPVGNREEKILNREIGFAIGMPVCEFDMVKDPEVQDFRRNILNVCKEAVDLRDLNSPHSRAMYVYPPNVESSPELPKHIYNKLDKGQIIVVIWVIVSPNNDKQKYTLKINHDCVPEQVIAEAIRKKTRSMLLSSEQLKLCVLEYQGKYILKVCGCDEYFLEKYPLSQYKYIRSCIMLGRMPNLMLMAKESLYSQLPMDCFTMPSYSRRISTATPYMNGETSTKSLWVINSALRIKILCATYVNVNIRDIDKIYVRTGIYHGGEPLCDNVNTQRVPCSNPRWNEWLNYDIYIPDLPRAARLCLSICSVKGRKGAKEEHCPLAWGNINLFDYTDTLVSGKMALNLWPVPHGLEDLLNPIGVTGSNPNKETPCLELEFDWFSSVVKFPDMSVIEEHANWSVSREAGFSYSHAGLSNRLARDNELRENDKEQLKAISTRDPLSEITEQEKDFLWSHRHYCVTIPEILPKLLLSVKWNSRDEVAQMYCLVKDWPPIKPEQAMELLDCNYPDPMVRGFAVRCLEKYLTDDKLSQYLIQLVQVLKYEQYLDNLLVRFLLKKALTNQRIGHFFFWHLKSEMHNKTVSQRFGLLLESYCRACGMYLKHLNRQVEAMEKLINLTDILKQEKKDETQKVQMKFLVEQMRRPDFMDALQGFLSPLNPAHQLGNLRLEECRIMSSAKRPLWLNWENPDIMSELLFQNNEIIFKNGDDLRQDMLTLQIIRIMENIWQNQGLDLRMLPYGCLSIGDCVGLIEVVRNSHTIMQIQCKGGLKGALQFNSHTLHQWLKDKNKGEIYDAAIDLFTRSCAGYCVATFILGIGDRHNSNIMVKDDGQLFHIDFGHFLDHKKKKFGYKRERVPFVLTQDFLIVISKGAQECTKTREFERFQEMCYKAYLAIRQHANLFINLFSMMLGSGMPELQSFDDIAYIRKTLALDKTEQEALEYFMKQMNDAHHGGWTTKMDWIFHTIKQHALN
T1 sequence (P27986 whole entry partner, canonical isoform): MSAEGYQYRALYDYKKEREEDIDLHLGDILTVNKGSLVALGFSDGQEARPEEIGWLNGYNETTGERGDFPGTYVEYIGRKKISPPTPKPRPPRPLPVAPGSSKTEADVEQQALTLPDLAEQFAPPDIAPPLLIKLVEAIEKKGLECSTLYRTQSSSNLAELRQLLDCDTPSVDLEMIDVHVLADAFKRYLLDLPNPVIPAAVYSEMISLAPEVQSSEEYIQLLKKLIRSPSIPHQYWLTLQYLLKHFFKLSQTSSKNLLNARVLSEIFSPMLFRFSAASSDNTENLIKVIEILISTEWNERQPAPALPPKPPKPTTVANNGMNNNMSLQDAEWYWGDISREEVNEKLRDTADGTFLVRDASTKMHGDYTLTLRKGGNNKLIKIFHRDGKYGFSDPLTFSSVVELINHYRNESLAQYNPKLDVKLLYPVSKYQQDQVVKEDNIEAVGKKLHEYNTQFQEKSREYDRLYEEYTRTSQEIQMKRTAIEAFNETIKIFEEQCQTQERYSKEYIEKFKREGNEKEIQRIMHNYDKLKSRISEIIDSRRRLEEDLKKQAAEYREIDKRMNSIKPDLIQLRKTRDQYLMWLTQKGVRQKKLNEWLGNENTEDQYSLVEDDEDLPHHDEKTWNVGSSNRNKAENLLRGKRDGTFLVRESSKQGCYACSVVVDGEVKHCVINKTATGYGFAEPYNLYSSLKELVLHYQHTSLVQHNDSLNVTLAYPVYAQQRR

SMILES | IC50 (p110α Type Ia human PI3K) [nM] | IC50 (mTOR [1]; read-out: mTOR Kinase Assay (Echo)) [nM] | IC50 (mTOR [1]; [3]) [nM] | IC50 (mTOR [2]) [nM]
C[C@H]1COCCN1c1cc(C2(S(C)(=O)=O)CC2)nc(-c2ccc(NC(=O)Nc3cnn(C)c3)cc2)n1 [Example 2b, 1-[4-[4-[(3S)-3-methylmorpholin-4-yl]-6-(1-methylsulfonylcyclopropyl)pyrimidin-2-yl]phenyl]-3-(1-methylpyrazol-4-yl)urea] | 1040 | 0.169 |  | 
C[C@H]1COCCN1c1cc(C2(S(=O)(=O)CCCO)CC2)nc(-c2ccc(NC(=S)NCCO)cc2)n1 [Example 37i, 3-(2-hydroxyethyl)-1-[4-[4-[1-(3-hydroxypropylsulfonyl)cyclopro-pyl]-6-[(3S)-3-methylmorpholin-4-yl]pyrimidin-2-yl]phenyl]thiourea] |  |  | 3.79 | 3.06
CCNC(=O)Nc1ccc(-c2nc(N3CCOC[C@@H]3C)cc(C3(S(=O)(=O)CCNC(C)=O)CC3)n2)cc1 [Example 45, N-[2-[1-[2-[4-(Ethylcarbamoylamino)phenyl]-6-[(3S)-3-methylmorpholin-4-yl]pyrimidin-4-yl]cyclopropyl]sulfonylethyl]acetamide] |  |  | 7.17 | 21.9
C[C@H]1COCCN1c1cc(C2(S(=O)(=O)CCCO)CC2)nc(-c2ccc(NC(=S)NC3CC3)cc2)n1 [Example 37h, 3-cyclopropyl-1-[4-[4-[1-(3-hydroxypropylsulfonyl)cyclopro-pyl]-6-[(3S)-3-methylmorpholin-4-yl]pyrimidin-2-yl]phenyl]thiourea] |  |  | 19.8 | 13.2
C[C@H]1COCCN1c1cc(C2(S(C)(=O)=O)CC2)nc(-c2ccc(NC(=O)NCCCO)cc2)n1 [Example 36bb, 3-(3-hydroxypropyl)-1-[4-[4-[(3S)-3-methylmorpholin-4-yl]-6-(1-methylsulfonylcyclopropyl)pyri-midin-2-yl]phenyl]urea] |  |  | 5.13 | 20.5

Next, values leading:

IC50 (p110α Type Ia human PI3K) [nM] | IC50 (mTOR [1]; read-out: mTOR Kinase Assay (Echo)) [nM] | IC50 (mTOR [1]; [3]) [nM] | IC50 (mTOR [2]) [nM] | SMILES
 |  | 1.11 | 1.44 | C[C@H]1COCCN1c1cc(C2(S(=O)(=O)c3ccc(Cl)cc3)CC2)nc(-c2ccc(NC(=O)NC3CC3)cc2)n1 [Example 27, 1-[4-[4-[1-(4-Chlorophenyl)sulfonylcyclopropyl]-6-[(3S)-3-methylmorpholin-4-yl]pyrimidin-2-yl]phenyl]-3-cyclopropylurea]
 |  | 1.87 | 0.816 | C[C@H]1COCCN1c1cc(C2(S(=O)(=O)c3ccccn3)CC2)nc(-c2ccc(NC(=O)NC3CC3)cc2)n1 [Example 28, 3-Cyclopropyl-1-[4-[4-[(3S)-3-methylmorpholin-4-yl]-6-(1-pyridin-2-ylsulfonylcyclopropyl)pyrimidin-2-yl]phenyl]urea]
 |  | 0.607 | 0.425 | CCNC(=O)Nc1ccc(-c2nc(N3CCOCC3)cc(C3(S(=O)(=O)c4nc(C)cs4)CC3)n2)cc1 [Example 42d, 1-ethyl-3-[4-[4-[1-[(4-methyl-1,3-thiazol-2-yl)sulfonyl]cyclopropyl]-6-morpholin-4-ylpyrimidin-2-yl]phenyl]urea]
 |  | 1.52 | 1.57 | Cc1csc(S(=O)(=O)C2(c3cc(N4CCOC[C@@H]4C)nc(-c4ccc(NC(=O)NC(C)C)cc4)n3)CC2)n1 [Example 25d, 1-[4-[4-[(3S)-3-methylmorpholin-4-yl]-6-[1-[(4-methyl-1,3-thiazol-2-yl)sulfonyl]cyclopropyl]pyrimidin-2-yl]phenyl]-3-propan-2-ylurea]
 |  | 2.55 | 2.58 | C[C@H]1COCCN1c1cc(C2(S(=O)(=O)c3ccccn3)CCC2)nc(-c2ccc(NC(=O)Nc3cnn(C)c3)cc2)n1 [Example 36aj, 1-[4-[4-[(3S)-3-methylmorpholin-4-yl]-6-(1-pyridin-2-ylsulfonylcyclobutyl)pyrimidin-2-yl]phenyl]-3-(1-methylpyrazol-4-yl)urea]
